In ChEMBL document CHEMBL3352246, “Design and synthesis of novel 5-(3,4,5-trimethoxybenzoyl)-4-aminopyrimidine derivatives as potent and selective phosphodiesterase 5 inhibitors: scaffold hopping using a pseudo-ring by intramolecular hydrogen bond formation” (Bioorg Med Chem Lett, 2014) one finds IC50, EC50 and Ratio IC50 data, which are given here for 16 compounds.

Assay [1] addresses cGMP-specific 3',5'-cyclic phosphodiesterase (Canis lupus familiaris, UniProt O77746). The assay can be described thus: Inhibition of canine lung PDE5 using [3H]cGMP substrate by radiolabeled nucleotide method.
Another assay relates to Corpus cavernosum. The assay can be described thus: Relaxant activity in rabbit corpus cavernosum assessed as reduction in phenyepinephrine-induced contraction. The assay is classed as functional, tissue-based. Particulars: Oryctolagus cuniculus.
The nature of assay [2]: Selectivity index, ratio of IC50 for light activated bovine retina PDE6 to IC50 for canine lung PDE5.
A short description of assay [3]: Selectivity index, ratio of IC50 for trypsin activated bovine retina PDE6 to IC50 for PDE5 (unknown origin).
The target of assay [4] is cGMP-specific 3',5'-cyclic phosphodiesterase (Homo sapiens, UniProt O76074). The assay can be described thus: Inhibition of PDE5 (unknown origin).
A short description of assay [5]: Selectivity index, ratio of IC50 for light activated bovine retina PDE6 to IC50 for PDE5 (unknown origin).
Assay [6] in a line: Inhibition of light activated bovine retina PDE6 using [3H]cGMP substrate by radiolabeled nucleotide method. Further details: species or system Bos taurus.

The structures appear in SMILES notation.

Consider `COc1ccc(CNc2nc(N3CCc4ccccc4C3)ncc2C(=O)c2cc(OC)c(OC)c(OC)c2)cc1Cl`, for which the IC50 (in general, the concentration at which inhibition is half-maximal) in assay [1] stood at 0.053 nM. In addition, the EC50 (as a rule, the concentration needed to bring the measured effect to its halfway point) in the assay on Corpus cavernosum is > 100 nM. Also, the Ratio IC50 in assay [2] turned out to be 3200.

`COc1ccc(CNc2nc(N3CCCCC3)ncc2C(=O)c2cc(OC)c(OC)c(OC)c2)cc1Cl` displayed an IC50 in assay [1] of 0.74 nM. In addition, the Ratio IC50 in assay [2] came to 2000.

Take `COC(=O)c1c(-c2cc(OC)c(OC)c(OC)c2)c2ccc(OCc3ccccn3)cc2c(=O)n1-c1ccc(N)cc1`: the Ratio IC50 in assay [3] worked out at 32; in assay [5] it was 650. In assay [4], this compound gave an IC50 of 1 nM.

Regarding `COC(=O)c1nc(N2CCC(O)CC2)c2cc(OCc3ccccc3)ccc2c1-c1cc(OC)c(OC)c(OC)c1`, the results for the IC50 in assay [1] and in assay [6] were 2 nM and 590 nM, respectively.

`COc1ccc(CNc2nc(N3CCOC(CO)C3)ncc2C(=O)c2cc(OC)c(OC)c(OC)c2)cc1Cl` (stereo not given) yielded a 50% inhibitory concentration (IC50) in assay [1] of 1.8 nM. In addition, in the assay on Corpus cavernosum, the EC50 was determined as 11 nM. For the same compound, the Ratio IC50 in assay [2] was 2800.

Take `COc1ccc(CNc2nc(OCc3ccccn3)ncc2C(=O)c2cc(OC)c(OC)c(OC)c2)cc1Cl`: in assay [1], the half-maximal inhibitory concentration (IC50) stood at 0.13 nM. Further, in the assay on Corpus cavernosum, the EC50 worked out at 53 nM. Moreover, the Ratio IC50 in assay [2] turned out to be 2400.

In assay [1], `COc1ccc(CNc2nc(OCc3ccccc3)ncc2C(=O)c2cc(OC)c(OC)c(OC)c2)cc1Cl` showed an IC50 of 0.38 nM. The concentration giving a half-maximal response (EC50) in the assay with Corpus cavernosum is > 100 nM. Also, the Ratio IC50 in assay [2] is 1600.

In turn, `COc1ccc(CNc2nc(OCc3ncccn3)ncc2C(=O)c2cc(OC)c(OC)c(OC)c2)cc1Cl` gave an IC50 in assay [1] of 3.4 nM. For the same compound, in the assay with Corpus cavernosum, the concentration for a half-maximal effect (EC50) came out at 3.1 nM. In assay [2], the Ratio IC50 turned out to be 560.

Consider `COc1ccc(COc2nc(OCc3ccccn3)ncc2C(=O)c2cc(OC)c(OC)c(OC)c2)cc1Cl`, for which half-maximal inhibition in assay [1] (IC50) required 1.5 nM.

In turn, `COc1ccc(CNc2nc(N3CCOCC3)ncc2C(=O)c2cc(OC)c(OC)c(OC)c2)cc1Cl` came in with an IC50 in assay [1] of 1.5 nM. In addition, in the assay on Corpus cavernosum, the EC50 was > 100 nM. Moreover, in assay [2], the Ratio IC50 came to 6700.

In turn, `COc1ccc(CNc2cc(OCc3ccccn3)ccc2C(=O)c2cc(OC)c(OC)c(OC)c2)cc1Cl` gave a 50% inhibitory concentration (IC50) in assay [1] of 0.66 nM. Also, the EC50 in the assay on Corpus cavernosum was > 100 nM. Moreover, in assay [2], the Ratio IC50 was 18000.

Turning to `COC(=O)c1nc(NCc2ccc(OC)c(Cl)c2)c2cc(OCc3ccccc3)ccc2c1-c1cc(OC)c(OC)c(OC)c1`, the IC50 in assay [1] was 3.5 nM; in assay [6] it was > 10000 nM.

As to `COc1ccc(CNc2nc(N(C)CCO)ncc2C(=O)c2cc(OC)c(OC)c(OC)c2)cc1Cl`, the IC50 in assay [1] worked out at 2.7 nM. The EC50 in the assay with Corpus cavernosum was determined as 29 nM. Further, the Ratio IC50 in assay [2] was > 3700.

On to `COC(=O)c1ncc2cc(OCc3ccccn3)ccc2c1-c1cc(OC)c(OC)c(OC)c1`, for which the IC50 in assay [1] is 34 nM; in assay [6], > 10000 nM.

Compound `COCCOc1ncc(C(=O)c2cc(OC)c(OC)c(OC)c2)c(NCc2ccc(OC)c(Cl)c2)n1` displayed an IC50 in assay [1] of 1.7 nM. Also, the concentration for a half-maximal effect (EC50) in the assay with Corpus cavernosum was 10 nM. Moreover, the Ratio IC50 in assay [2] was found to be 2200.

In assay [1], `COc1ccc(CN(C)c2nc(OCc3ccccn3)ncc2C(=O)c2cc(OC)c(OC)c(OC)c2)cc1Cl` showed an IC50 of 5 nM.
